# Reference: patent US20060062859A1, “Composition and method to optimize and customize nutritional supplement formulations by measuring genetic and metabolomic contributing factors to disease diagnosis, stratification, prognosis, metabolism, and therapeutic outcomes” (priority 2004, published 2006)
# Where no end group is shown, it is not given here.
# Key:
# [1] = tested on: sweet and bitter receptors on the tongue; conditions: in vivo; cited from earlier work
# [2] = repeated stress; cited from earlier work
# [3] = in vivo; cited from earlier work
# [4] = direct microinjection; cited from earlier work
# [5] = cited from earlier work; for OA pain / joint function: people with OA
# [6] = cited from earlier work
# [7] = cited from earlier work; remark: listed apart in the source
# [8] = target: T1, D2 receptors in the Nacc (Rattus norvegicus, UniProt P61169); conditions: bilateral, nmol/side; cited from earlier work
# T1 construct: from tissue; host or cells: nucleus accumbens in vivo; study cited from the literature
# T1 sequence (P61169 whole entry): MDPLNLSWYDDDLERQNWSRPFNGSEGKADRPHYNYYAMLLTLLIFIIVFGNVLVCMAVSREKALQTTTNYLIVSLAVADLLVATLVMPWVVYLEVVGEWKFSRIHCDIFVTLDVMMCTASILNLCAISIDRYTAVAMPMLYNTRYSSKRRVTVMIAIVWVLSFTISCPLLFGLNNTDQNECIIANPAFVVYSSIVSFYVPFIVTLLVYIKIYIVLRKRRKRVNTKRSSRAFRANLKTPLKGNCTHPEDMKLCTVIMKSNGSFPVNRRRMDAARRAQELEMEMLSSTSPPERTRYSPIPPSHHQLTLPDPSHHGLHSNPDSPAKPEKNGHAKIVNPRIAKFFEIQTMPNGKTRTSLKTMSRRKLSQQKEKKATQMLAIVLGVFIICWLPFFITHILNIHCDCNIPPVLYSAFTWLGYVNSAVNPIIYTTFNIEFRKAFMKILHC
# [9] = target: T2, insulin receptor (IR) (Mus musculus, UniProt P15208); conditions: cited from earlier work
# T2 construct: endogenous in cells; study cited from the literature
# T2 sequence (P15208 28-748 limits assumed): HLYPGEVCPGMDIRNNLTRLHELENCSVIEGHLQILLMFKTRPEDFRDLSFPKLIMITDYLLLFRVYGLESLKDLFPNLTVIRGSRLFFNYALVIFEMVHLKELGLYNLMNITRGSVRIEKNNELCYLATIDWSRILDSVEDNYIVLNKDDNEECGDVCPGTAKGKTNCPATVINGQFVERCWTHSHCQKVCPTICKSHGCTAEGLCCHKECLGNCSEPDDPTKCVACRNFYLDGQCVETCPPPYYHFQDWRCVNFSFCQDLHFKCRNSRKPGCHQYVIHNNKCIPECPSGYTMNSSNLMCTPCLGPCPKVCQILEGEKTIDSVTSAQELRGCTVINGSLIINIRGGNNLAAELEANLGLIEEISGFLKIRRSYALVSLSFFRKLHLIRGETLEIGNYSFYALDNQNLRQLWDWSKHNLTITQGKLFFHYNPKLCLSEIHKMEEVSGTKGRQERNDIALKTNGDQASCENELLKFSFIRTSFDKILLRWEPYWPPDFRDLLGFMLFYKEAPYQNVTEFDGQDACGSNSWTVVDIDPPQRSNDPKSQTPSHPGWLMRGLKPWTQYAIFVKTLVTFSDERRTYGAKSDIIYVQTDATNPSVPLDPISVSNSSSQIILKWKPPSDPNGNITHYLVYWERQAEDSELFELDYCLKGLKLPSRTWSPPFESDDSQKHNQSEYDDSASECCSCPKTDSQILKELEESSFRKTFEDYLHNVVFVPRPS
# T2 sequence (P15208 753-1372 limits assumed): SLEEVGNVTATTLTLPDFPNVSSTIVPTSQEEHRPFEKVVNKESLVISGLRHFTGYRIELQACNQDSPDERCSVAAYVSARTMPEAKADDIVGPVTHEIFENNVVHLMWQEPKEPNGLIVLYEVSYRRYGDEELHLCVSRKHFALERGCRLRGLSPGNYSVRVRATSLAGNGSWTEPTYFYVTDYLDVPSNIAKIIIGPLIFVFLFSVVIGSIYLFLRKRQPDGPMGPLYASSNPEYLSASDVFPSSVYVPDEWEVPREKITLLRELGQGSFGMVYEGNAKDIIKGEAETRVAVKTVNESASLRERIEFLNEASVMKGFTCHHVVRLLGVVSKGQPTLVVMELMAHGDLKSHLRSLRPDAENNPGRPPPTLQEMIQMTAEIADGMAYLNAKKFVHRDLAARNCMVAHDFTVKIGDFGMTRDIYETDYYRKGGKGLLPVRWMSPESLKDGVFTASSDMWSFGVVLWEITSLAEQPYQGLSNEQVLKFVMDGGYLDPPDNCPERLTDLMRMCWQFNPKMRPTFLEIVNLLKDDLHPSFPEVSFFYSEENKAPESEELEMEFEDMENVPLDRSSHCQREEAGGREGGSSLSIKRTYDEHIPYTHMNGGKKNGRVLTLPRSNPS
# [10] = double-blind placebo controlled; cited from earlier work
# [11] = tested on: release of serotonin; conditions: long lasting and dose dependent; cited from earlier work
# [12] = Compliance with Trexan after rapid detoxification of methadone patients; format: in vivo, human; conditions: P<0.0001
# Protocol: Over the last decade, a new rapid method to detoxify either methadone or heroin addicts utilizing TrexanR sparked interest in many treatment centers throughout the United States, Canada, as well as many countries on a worldwide basis. […] It may also be interesting too further test this hypothesis with the sublingual combination of the partial opiate mu receptor agonist buprenorphrine. The ingredients tested included DL-phenylalanine (2760 mg/day), L-Glutamine (150 mg/day), chromium picolinate (360 micrograms/day), pyridoxal-5-phosphate (30 mg/day). • Most recently a study was performed by Julia Ross best selling author of The Diet Cure (Viking Press USA, 1999; Penguin UK, Au, and USA, 2000), in an outpatient clinic in Mill Valley, Calif. involving amino-acid therapy and enkephalinase inhibition based on Blum's work. […]
# [13] = Enkephalinase inhibitors in mice: brain enkephalins and alcohol preference; format: in vivo; conditions: for alcohol preference: acceptance and 14 day preference test; for brain enkephalins: d-phenylalanine 500 mg/kg/day 18 days, metabolite 25 micrograms i.c.v.
# [14] = VTA / midbrain dopamine neurons; cited from earlier work
# [15] = chronic treatment; cited from earlier work
# [16] = tested on: brain dopamine and serotonin flux; conditions: cited from earlier work
# [17] = tested on: synaptosomal dopamine; conditions: cited from earlier work
compound,measurement,setting,value
gurmarin,sweet taste of glucose and sucrose,[1],block
CN(C)CCCN1c2ccccc2CCc2ccc(Cl)cc21 [clomipramine],development of hyperalgesia,[2],blocks
"O=S(=O)([O-])[O-].[O]=[V+2] [vanadyl, Vanadyl sulfate]",blood sugar levels,[3],very effective in normalizing blood sugar levels
CCCN1CCc2cccc3c2[C@H]1Cc1ccc(O)c(O)c1-3 [n-propylnor-apomorphine],symptoms after withdrawal of opiates,[4],significantly suppresses
CHONDROITIN SULFATE,OA pain / joint function,[5],significant improvement in pain and inflammation and improved joint function
CCN[C@@H](C)Cc1cccc(C(F)(F)F)c1 [d-fenfluramine],consumption of a sucrose solution,[6]; non-deprived rats,reduced
[Ca+2] [calcium],lower body weight per 300 mg increment of regular intake,[7]; adults,2.5 to 3.0 kg
same,weight loss compared to the placebo group,[7]; approximately 4 years of observation,significant weight loss
same,less body fat per 300 mg increment of regular intake,[7]; children,about 1 kg
same,reduction of prevalence of overweight and obesity (estimate),[7]; increased intake,60-80%
Oc1cc2c(cc1O)C(c1ccccc1)CNCC2 (centres unmarked) [SKF 38393],persistent phase of formalin-induced nociception,[8],without effect
O=C(OC[C@H]1O[C@@H](OC(=O)c2cc(O)c(O)c(OC(=O)c3cc(O)c(O)c(O)c3)c2)[C@H](OC(=O)c2cc(O)c(O)c(OC(=O)c3cc(O)c(O)c(O)c3)c2)[C@@H](OC(=O)c2cc(O)c(O)c(OC(=O)c3cc(O)c(O)c(O)c3)c2)[C@@H]1OC(=O)c1cc(O)c(O)c(OC(=O)c2cc(O)c(O)c(O)c2)c1)c1cc(O)c(O)c(OC(=O)c2cc(O)c(O)c(O)c2)c1 [Tannic Acid],expression of key genes for adipogenesis (PPAR-gamma 2; c-fos; c-jun and c-myc),[9],inhibit
same,phosphorylation of the insulin receptor (IR),[9],induces phosphorylation
same,translocation of the glucose transporter (GLUT 4),[9],translocation
CNCCC(Oc1ccc(C(F)(F)F)cc1)c1ccccc1 (centres unmarked) [fluoxitine],development of hyperalgesia,[2],blocks
same,ingestion of saccharin solutions,[6]; normal rats,suppresses
NC(Cc1ccccc1)C(=O)O (racemic) [dl-phenylalanine],psychosocial stress as measured by SCL,[10],reduces stress
CCN1CCC[C@H]1CNC(=O)c1c(O)c(Cl)cc(Cl)c1OC [raclopride],persistent phase of formalin-induced nociception,[8],blocked
"N[C@@H](Cc1c[nH]c2ccc(O)cc12)C(=O)O [5-HTP, 5-hydroxy-l-tryptophan]",5-HT in dialysates,[11],immediate increase
O=C1CC[C@@]2(O)[C@H]3Cc4ccc(O)c5c4[C@@]2(CCN3CC2CC2)[C@H]1O5 [Trexan],average number of days of compliance,[12],37 days
"O=C(O)CCc1ccccc1 [hydrocunnamic acid, reference compound]",alcohol preference,[13],significantly reduced
same,brain enkephalins,[13],brain changes of the enkephalins
CN1CC[C@]23c4c5ccc(O)c4O[C@H]2[C@@H](O)C=C[C@H]3[C@H]1C5 [morphine],tonic pain / analgesia in the formalin test,[14],induces analgesia
same,food intake,[15],decreased food intake
"substance P (RPKPQQFFGLM; ends and bridges not checked; UniProt P20366 58-68, looked up) [SP, tachykinin neuropeptide, substance P]",tonic pain / analgesia in the formalin test,[14],inhibit tonic pain
CC(C)CC(N(C)C)C1(c2ccc(Cl)cc2)CCC1 (centres unmarked) [Sibutramine],serotonin and dopamine concentrations in striatal and hypothalamic brain regions,[16]; higher doses,increased
same,serotonin and dopamine concentrations in dialysates,[16]; low doses,no effect
N[C@H](Cc1ccccc1)C(=O)O [d-phenylalanine],alcohol preference,[13],significantly reduced
same,brain enkephalins,[13],brain changes of the enkephalins
CN1[C@@H]2CC[C@H]1C[C@@H](OC(c1ccccc1)c1ccccc1)C2 [Cogentin],release of dopamine formed from 14C-phenylalanine,[17],increased
"C[S+](CC[C@H](N)C(=O)[O-])C[C@H]1O[C@@H](n2cnc3c(N)ncnc32)[C@H](O)[C@@H]1O (stereo partly drawn) [SAM-e, S-adenosyl-L-methionine]",OA pain / joint function,[5],equal to NSAIDs
N[C@@H](Cc1c[nH]c2ccccc12)C(=O)O [tryptophan],development of hyperalgesia,[2],blocks
CCn1cc(C(=O)O)c(=O)c2ccc(Cc3ccccc3)nc21 [Amfoelic acid],release of dopamine formed from 14C-phenylalanine,[17],net release
CC(N)Cc1ccccc1 (centres unmarked) [Amphetamine],release of dopamine formed from 14C-phenylalanine,[17],increased
N[C@H]1C(O)O[C@H](CO)[C@@H](O)[C@@H]1O (some centres unmarked) [glucosamine],progression of the disease,"[5]; knee OA, three years","slowed, if not stopped"
